Among the data in patent US9862726B2, “Opioid receptor modulating oxabicyclo[2.2.2]octane morphinans” (PURDUE PHARMA L.P., priority 2013, dated 2018) are EC50, Emax and Ki values, retold here.

Where two headings read alike, the source gives them in different places.

In assay [1] the target is T1, μ-opioid receptor (Homo sapiens (Human), UniProt P35372). The assay can be described thus: μ-opioid receptor functional assay (U-2 OS cells). The class given is biochemical. The settings on record: for Emax: U-2 OS cells, relative to DAMGO. The method, then: (§1) [^35S]GTPγS functional assays were conducted using freshly thawed μ-receptor membranes prepared in-house from a cell line expressing recombinant μ opioid receptor in a HEK-293, CHO or U-2 OS cell background, or purchased from a commercial source (Perkin Elmer, Shelton, Conn.; or DiscovRx, Fremont, Calif.). Assay reactions were prepared by sequentially adding the following reagents to binding buffer (100 mM NaCl, 10 mM MgCl2, 20 mM HEPES, pH 7.4) on ice (final concentrations indicated): membrane protein (0.026 mg/mL), saponin ([…]), GDP ([…]) and [^35S]GTPγS (0.20 nM; Perkin Elmer, Shelton, Conn.). The prepared membrane solution (190 μl/well) was transferred to 96-shallow well polypropylene plates containing 10 μl of 20× concentrated stock solutions of the agonist [D-Ala^2, N-methyl-Phe^4 Gly-ol^5]-enkephalin (DAMGO) prepared in dimethyl sulfoxide (DMSO). Plates were incubated for 30 min at about 25° C. with shaking. Reactions were terminated by rapid filtration onto 96-well Unifilter GF/B filter plates (Perkin Elmer, Shelton, Conn.) using a 96-well tissue harvester (Perkin Elmer, Shelton, Conn.) followed by three filtration washes with 200 μl of ice-cold wash buffer (10 mM NaH2PO4, 10 mM Na2HPO4, pH 7.4). Filter plates were subsequently dried at 50° C. for 2-3 hours. BetaScint scintillation cocktail (Perkin Elmer, Shelton, Conn.) was added (50 μl/well) and plates were counted using a Packard Top-Count for 1 min/well. Data were analyzed using the sigmoidal dose-response curve fitting functions in GraphPad PRISM v. 3.0, or an in-house function for non-linear, sigmoidal dose-response curve-fitting. [^35S]GTPγS functional assays can also be conducted using freshly thawed μ-receptor membranes prepared from a cell line expressing recombinant μ opioid receptor in a CHO-K1 cell background.
(§2) μ GTP EC50 is the concentration of a compound providing 50% of the maximal response for the compound at a μ-opioid receptor.
(§3) μ GTP Emax (%) is the maximal effect elicited by a compound relative to the effect elicited by DAMGO, a standard μ agonist.

Another assay deals with κ-opioid receptor (Homo sapiens (Human), UniProt P41145). The assay can be described thus: κ-opioid receptor functional assay (U-2 OS cells). The class given is biochemical. Particulars: for Emax: U-2 OS cells, relative to U69,593. The method, then:
Functional [^35S]GTPγS binding assays were conducted as follows. κ opioid receptor membrane solution was prepared by sequentially adding final concentrations of 0.026 μg/μl κ membrane protein (in-house), 10 μg/mL saponin, 3 μM GDP and 0.20 nM [^35S]GTPγS to binding buffer (100 mM NaCl, 10 mM MgCl2, 20 mM HEPES, pH 7.4) on ice. The prepared membrane solution (190 μl/well) was transferred to 96-shallow well polypropylene plates containing 10 μl of 20× concentrated stock solutions of agonist prepared in DMSO. Plates were incubated for 30 min at a temperature of about 25° C. with shaking. Reactions were terminated by rapid filtration onto 96-well Unifilter GF/B filter plates (Perkin Elmer, Shelton, Conn.) using a 96-well tissue harvester (Packard) and followed by three filtration washes with 200 μl ice-cold binding buffer (10 mM NaH2PO4, 10 mM Na2HPO4, pH 7.4). Filter plates were subsequently dried at 50° C. for 2-3 hours. Fifty μl/well scintillation cocktail (Perkin Elmer, Shelton, Conn.) was added and plates were counted in a Packard Top-Count for 1 min/well.
κ GTP EC50 is the concentration of a compound providing 50% of the maximal response for the compound at a κ receptor.
κ GTP Emax (%) is the maximal effect elicited by a compound relative to the effect elicited by U69,593.
The following TABLE 5 provides results on the activity response of certain Compounds of the Invention at the μ- and κ-opioid receptors determined as described above using U-2 OS cells.

Assay [2] addresses T1, μ-opioid receptor. The assay can be described thus: μ-opioid receptor [35S]GTPγS functional assay (HEK-293 cells). It is filed as biochemical. The settings on record: for Emax: HEK-293 cells, relative to DAMGO. As for the experimental part:
as §1, §2, §3
In TABLE 4, activity response of certain Compounds of the Invention to the μ- and κ-opioid receptors was determined as described above for functional assays using HEK-293 cells.
(Binding of GTPγS marks nucleotide exchange on a G protein.)

The target in assay [3] is recombinant human kappa opioid receptor (κ) (Homo sapiens (Human), UniProt P41145). The assay can be described thus: κ-opioid receptor radioligand dose-displacement binding assay (HEK-293 cells). The method, then: Membranes from HEK-293 cells, CHO cells or U-2 OS cells expressing the recombinant human kappa opioid receptor (κ) were prepared by lysing cells in ice cold hypotonic buffer (2.5 mM MgCl2, 50 mM HEPES, pH 7.4) (10 mL/10 cm dish) followed by homogenization with a tissue grinder/Teflon pestle. Membranes from a cell line naturally expressing kappa opioid receptor can also be used. Membranes were collected by centrifugation at 30,000×g for 15 min at 4° C. and pellets were resuspended in hypotonic buffer to a final concentration of 1-3 mg/mL. Protein concentrations were determined using the BioRad protein assay reagent with bovine serum albumen as standard. Aliquots of κ receptor membranes were stored at −80° C.
Radioligand dose displacement assays used 0.4 nM [^3H]-U69,593 (GE Healthcare, Piscataway, N.J.; 40 Ci/mmole) with 15 μg membrane protein (recombinant κ opioid receptor expressed in HEK 293 cells; in-house prep) in a final volume of 200 μl binding buffer (5% DMSO, 50 mM Trizma base, pH 7.4). Non-specific binding was determined in the presence of 10 μM unlabeled naloxone or U69,593. All reactions were performed in 96-well polypropylene plates for 1 hour at a temperature of about 25° C. Binding reactions were terminated by rapid filtration onto 96-well Unifilter GF/C filter plates (Perkin Elmer, Shelton, Conn.) presoaked in 0.5% polyethylenimine (Sigma). Harvesting was performed using a 96-well tissue harvester (Perkin Elmer, Shelton, Conn.) followed by five filtration washes with 200 μl ice-cold binding buffer. Filter plates were subsequently dried at 50° C. for 1-2 hours. Fifty μl/well scintillation cocktail (Perkin Elmer, Shelton, Conn.) was added and plates were counted in a Packard Top-Count for 1 min/well.
(§4) In TABLE 3, binding affinity of certain Compounds of the Invention to the μ- and κ-opioid receptors was determined as described above using HEK-293 cells.

The target of assay [4] is T1, μ-opioid receptor. The assay can be described thus: μ-opioid receptor radioligand dose-displacement binding assay (HEK-293 cells). Particulars: bound given in μM. The method, then: Radioligand dose-displacement binding assays for μ-opioid receptors used 0.3 nM [^3H]-diprenorphine (Perkin Elmer, Shelton, Conn.), with […] membrane protein/well in a final volume of 500 μl binding buffer (10 mM MgCl2, 1 mM EDTA, 5% DMSO, 50 mM HEPES, pH 7.4). Reactions were carried out in the absence or presence of increasing concentrations of unlabeled naloxone. All reactions were conducted in 96-deep well polypropylene plates for 2 hours at room temperature. Binding reactions were terminated by rapid filtration onto 96-well Unifilter GF/C filter plates (Perkin Elmer, Shelton, Conn.), presoaked in 0.5% polyethylenimine using a 96-well tissue harvester (Perkin Elmer, Shelton, Conn.) followed by performing three filtration washes with 500 μl of ice-cold binding buffer. Filter plates were subsequently dried at 50° C. for 2-3 hours. BetaScint scintillation cocktail (Perkin Elmer, Shelton, Conn.) was added (50 μl/well), and plates were counted using a Packard Top-Count for 1 min/well. The data were analyzed using the one-site competition curve fitting functions in GraphPad PRISM™ v. 3.0 or higher (San Diego, Calif.), or an in-house function for one-site competition curve-fitting.
as §4

As to `COc1ccc2c(c1)[C@]13CCN(CC4CC4)[C@H](C2)[C@]12CC[C@@](N(C)C)(CO2)C3` [Compound 28, (4bR,6S,8aS,9R)-11-(cyclopropylmethyl)-3-methoxy-N,N-dimethyl-5,6,7,8,9,10-hexahydro-9,4b-(epiminoethano)-8a,6-(epoxymethano)phenanthren-6-amine], the EC50 (in general, the concentration giving half of the maximal effect) on μ-opioid receptor [1] was determined as 339 ± 31.6 nM; on κ-opioid receptor, 132 ± 25.7 nM; at μ-opioid receptor [2], 1920 ± 693 nM. In addition, the Emax (usually the size of the effect at its maximum, as opposed to the concentration needed) on μ-opioid receptor [1] was determined as 68.7 ± 0.67%; on κ-opioid receptor it was 107 ± 2.4%; at μ-opioid receptor [2], 18.8 ± 1.46%.

Consider `COc1ccc2c(c1)[C@]13CCN(CC4CC4)[C@H](C2)[C@]12CC[C@@](N1CCOCC1)(CO2)C3` [Compound 31, (4bR,6S,8aS,9R)-11-(cyclopropylmethyl)-3-methoxy-6-morpholino-5,6,7,8,9,10-hexahydro-9,4b-(epiminoethano)-8a,6-(epoxymethano)phenanthrene], for which the EC50 on μ-opioid receptor [1] worked out at 147 ± 7.61 nM; at κ-opioid receptor, 30 ± 7.2 nM; on μ-opioid receptor [2], 887 ± 278 nM. In addition, the maximal effect (Emax) on μ-opioid receptor [1] was found to be 38.7 ± 2.96%; on κ-opioid receptor, 103.7 ± 0.33%; at μ-opioid receptor [2], 9 ± 1.15%.

Consider `COc1ccc2c(c1)[C@]13CCN(CC4CC4)[C@H](C2)[C@]12CC[C@@](Nc1ccccc1)(CO2)C3` [Compound 30, (4bR,6S,8aS,9R)-11-(cyclopropylmethyl)-3-methoxy-N-phenyl-5,6,7,8,9,10-hexahydro-9,4b-(epiminoethano)-8a,6-(epoxymethano)phenanthren-6-amine], for which the EC50 worked out at 9.93 ± 0.87 nM at μ-opioid receptor [1], 0.14 ± 0.039 nM at κ-opioid receptor and 83.6 ± 23.4 nM on μ-opioid receptor [2]. The Emax on μ-opioid receptor [1] was 69 ± 2.65%; on κ-opioid receptor, 105 ± 3.53%; at μ-opioid receptor [2], 20.3 ± 0.67%.

In the case of `COc1ccc2c(c1)[C@]13CCN(CC4CC4)[C@H](C2=O)[C@]12CC[C@](O)(C3)C(=O)O2` [Compound 33, (4bR,6S,8aS,9S)-11-(cyclopropylmethyl)-6-hydroxy-3-methoxy-5,6,7,8-tetrahydro-9,4b-(epiminoethano)-8a,6-(epoxymethano)phenanthrene-10,15(9H)-dione], the Ki (as a rule, a dissociation constant, usually derived from enzyme kinetics or from competition with a known ligand) in assay [3] is 3.35 ± 0.325 µM; on μ-opioid receptor [4], greater than 20 µM.

For the molecule `COc1ccc2c(c1)[C@]13CCN(CC4CC4)[C@H](C2)[C@]12CC[C@@](N1CCCC1)(CO2)C3` [Compound 32, (4bR,6S,8aS,9R)-11-(cyclopropylmethyl)-3-methoxy-6-(pyrrolidin-1-yl)-5,6,7,8,9,10-hexahydro-9,4b-(epiminoethano)-8a,6-(epoxymethano)phenanthrene], the EC50 on μ-opioid receptor [1] amounted to 255 ± 26.6 nM; at κ-opioid receptor it was 26.6 ± 5.92 nM; at μ-opioid receptor [2], 1380 ± 234 nM. The Emax was found to be 69 ± 2.89% at μ-opioid receptor [1], 104 ± 3.61% at κ-opioid receptor and 20.7 ± 0.33% on μ-opioid receptor [2].

On μ-opioid receptor [2], `CN1CC[C@]23C[C@@]4(N)CC[C@@]2(OC4)[C@H]1Cc1ccc(O)cc13` [Compound 35, (4bR,6S,8aS,9R)-6-amino-11-methyl-5,6,7,8,9,10-hexahydro-9,4b-(epiminoethano)-8a,6-(epoxymethano)phenanthren-3-ol] displayed an EC50 of 291 ± 23.2 nM and an Emax of 50.3 ± 2.33%.

Take `COc1ccc2c(c1)[C@]13CCN(CC4CC4)[C@H]([C@@H]2O)[C@]12CC[C@](O)(C3)C(=O)O2` [Compound 34, (4bR,6S,8aS,9R,10R)-11-(cyclopropylmethyl)-6,10-dihydroxy-3-methoxy-5,6,7,8,9,10-hexahydro-9,4b-(epiminoethano)-8a,6-(epoxymethano)phenanthren-15-one]: the Ki (in assay [3] (bound given in μM); on μ-opioid receptor [4]) was greater than 20 µM each time.

On μ-opioid receptor [2], `CN[C@]12CC[C@@]3(OC1)[C@H]1Cc4ccc(O)cc4[C@@]3(CCN1CC1CC1)C2` [Compound 37, (4bR,6S,8aS,9R)-11-(cyclopropylmethyl)-6-(methylamino)-5,6,7,8,9,10-hexahydro-9,4b-(epiminoethano)-8a,6-(epoxymethano)phenanthren-3-ol] had an EC50 of 3.44 ± 0.78 nM and an Emax of 19 ± 1%.

As for `COc1ccc2c(c1)[C@]13CCN(CC4CC4)[C@H](C2)[C@]12CC[C@@](Nc1ccc(C(C)(C)C)cc1)(CO2)C3` [Compound 29, (4bR,6S,8aS,9R)—N-(4-tert-butyl)phenyl-11-(cyclopropylmethyl)-3-methoxy-5,6,7,8,9,10-hexahydro-9,4b-(epiminoethano)-8a,6-(epoxymethano)phenanthren-6-amine], the results for the EC50 at μ-opioid receptor [1], at κ-opioid receptor and on μ-opioid receptor [2] were 2.02 ± 0.28 nM, 3.08 ± 0.32 nM and greater than 20000 nM, respectively. Moreover, the Emax came to 43.3 ± 2.4% on μ-opioid receptor [1], 113 ± 4.41% on κ-opioid receptor and 7.5 ± 1.55% at μ-opioid receptor [2].
